Experimental findings from publication PMC4701504, “Immunogenicity of HLA Class I and II Double Restricted Influenza A-Derived Peptides” (PLoS ONE, 2016) are described below.

Like-named read-outs stand apart in the source and are kept apart here. Where a SMILES comes first, the peptide text is derived from it.

Experiment [1] deals with recombinant HLA-DRA*01:01/DRB1*01:01 molecules (Homo sapiens, UniProt P01903+P01911, A100R/D57E/F55L/F60I/F76Y/I96L/L162R/M171V/P40L/Q125E/R42F/V115G/Y59C). In words: biochemical. The format is binding.
In another experiment the target is HLA-A*02:01 (Homo sapiens, UniProt P04439, D140Y/D185E/D98H/E176V/E277Q/G131W/G231S/I119V/I121R/I166T/I218V/L300P/L318F/N151K/N90K/P208A/P217A/Q86G/Q94H/R138H/R169H/T345S). Nature of the experiment: biochemical. The format is binding.
Experiment [2] deals with CD8 and CD4 T cells of HLA-A*02:01/HLA-DRB1*01:01 transgenic mice. The format is in vivo. Details: key: I, CD8 response; II, CD4 response; -,no response. The following applies: CAF09 + 20 nmol peptide i.p. three times at two week intervals; IFNγ ELISpot one week after last immunization (Fig 1).
[3] abbreviates: read-out: HLA-DRB1*01:01 Measured.
Where [4] appears, read: […], peptide concentration at half-saturation as approximation of KD, read-out: HLA-A*02:01 Measured.

Regarding `CC[C@H](C)[C@H](NC(=O)[C@@H]1CCCN1C(=O)[C@H](CCCNC(=N)N)NC(=O)[C@@H](NC(=O)[C@H](CCCCN)NC(=O)[C@H](CC(C)C)NC(=O)[C@H](Cc1c[nH]c2ccccc12)NC(=O)[C@H](CCC(=O)O)NC(=O)[C@H](CCSC)NC(=O)[C@H](CC(C)C)NC(=O)[C@@H](N)C(C)C)[C@@H](C)O)C(=O)O` [M(41–51)] (H-VLMEWLKTRPI-OH), the figures for the Kd (in experiment [1] (setting [3]); on HLA-A*02:01 (setting [4])) were 119 nM and 101 nM, respectively.

Consider `CSCC[C@H](NC(=O)[C@@H](N)CCCNC(=N)N)C(=O)NCC(=O)N[C@@H](C)C(=O)N[C@H](C(=O)N[C@H](C(=O)N[C@H](C(=O)N[C@@H](CCC(=O)O)C(=O)N[C@H](C(=O)O)C(C)C)[C@@H](C)O)[C@@H](C)O)C(C)C` [M(134–142)] (H-RMGAVTTEV-OH), for which the Kd in experiment [1] (setting [3]) was greater than 5000 nM; at HLA-A*02:01, 133 nM.

As to `CC[C@H](C)[C@H](NC(=O)[C@H](CC(C)C)NC(=O)[C@H](C)NC(=O)[C@H](CO)NC(=O)[C@H](CCCNC(=N)N)NC(=O)[C@H](C)NC(=O)[C@H](CC(C)C)NC(=O)[C@@H](N)Cc1ccccc1)C(=O)N[C@@H](CC(C)C)C(=O)O` [NP(258–266)] (H-FLARSALIL-OH), the Kd stood at 97 nM in experiment [1] (setting [3]) and 0.9 nM on HLA-A*02:01.

Regarding `CC[C@H](C)[C@H](NC(=O)CNC(=O)[C@@H](NC(=O)[C@H](CC(C)C)NC(=O)[C@@H](N)CO)C(C)C)C(=O)N[C@@H](CC(=O)O)C(=O)N1CCC[C@H]1C(=O)N[C@@H](Cc1ccccc1)C(=O)N[C@@H](CCCNC(=N)N)C(=O)N[C@@H](CC(C)C)C(=O)O` [NP(297–306)] (H-SLVGIDPFRL-OH), the values for the Kd (in experiment [1]; at HLA-A*02:01 (setting [4])) were 460 nM and 70 nM, respectively.

As to `CC[C@H](C)[C@H](N)C(=O)N[C@H](C(=O)N[C@@H](CC(C)C)C(=O)N[C@@H](CCCCN)C(=O)N[C@@H](C)C(=O)N[C@@H](CC(N)=O)C(=O)N[C@@H](Cc1ccccc1)C(=O)N[C@@H](CO)C(=O)N[C@H](C(=O)O)C(C)C)[C@@H](C)CC` [NS1(128–136)] (H-IILKANFSV-OH), the Kd is greater than 5000 nM in experiment [1] (setting [3]) and 45 nM on HLA-A*02:01 (setting [4]).

As to `CSCC[C@H](NC(=O)[C@@H](N)Cc1ccccc1)C(=O)N[C@@H](CCC(N)=O)C(=O)N[C@@H](C)C(=O)N[C@@H](CC(C)C)C(=O)N[C@@H](Cc1c[nH]cn1)C(=O)N[C@@H](CC(C)C)C(=O)N[C@@H](CC(C)C)C(=O)N[C@@H](CC(C)C)C(=O)O` [NS2(99–107)] (H-FMQALHLLL-OH), the Kd is greater than 5000 nM in experiment [1] (setting [3]) and 13 nM at HLA-A*02:01 (setting [4]).

`CC[C@H](C)[C@H](NC(=O)[C@H](CO)NC(=O)[C@H](CC(C)C)NC(=O)[C@H](CCCCN)NC(=O)[C@H](CC(C)C)NC(=O)[C@H](C)NC(=O)[C@H](CC(=O)O)NC(=O)[C@H](CCSC)NC(=O)[C@H](CC(C)C)NC(=O)[C@H](CC(C)C)NC(=O)[C@@H](N)Cc1ccccc1)C(=O)O` [PA(282–292)] (H-FLLMDALKLSI-OH): the Kd in experiment [1] (setting [3]) was found to be 23 nM; on HLA-A*02:01 (setting [4]), 24 nM.

Regarding `CSCC[C@H](NC(=O)[C@H](CO)NC(=O)[C@H](CCC(=O)O)NC(=O)[C@H](CCSC)NC(=O)[C@@H](NC(=O)[C@H](CC(=O)O)NC(=O)[C@H](CCCCN)NC(=O)[C@H](CC(C)C)NC(=O)[C@@H](N)Cc1ccccc1)C(C)C)C(=O)O` [PB1(166–174)] (H-FLKDVMESM-OH), the Kd in experiment [1] was greater than 5000 nM; at HLA-A*02:01 (setting [4]), 51 nM.

`CC[C@H](C)[C@H](NC(=O)[C@H](CC(C)C)NC(=O)[C@@H](N)Cc1ccc(O)cc1)C(=O)N[C@@H](CCCNC(=N)N)C(=O)N[C@@H](C)C(=O)N[C@@H](CC(C)C)C(=O)N[C@H](C(=O)N[C@@H](CC(C)C)C(=O)N[C@@H](CC(N)=O)C(=O)N[C@H](C(=O)N[C@@H](CCSC)C(=O)O)[C@@H](C)O)[C@@H](C)O` [PB1(217–227)] (H-YLIRALTLNTM-OH): the values for the Kd (in experiment [1] (setting [3]); on HLA-A*02:01 (setting [4])) were 76 nM and 46 nM, respectively.

As to `CC[C@H](C)[C@H](NC(=O)[C@H](CCSC)NC(=O)[C@H](C)NC(=O)[C@H](CC(C)C)NC(=O)[C@@H](N)Cc1ccccc1)C(=O)N[C@H](C(=O)N[C@@H](Cc1ccc(O)cc1)C(=O)N[C@@H](CCSC)C(=O)N[C@H](C(=O)O)[C@@H](C)O)[C@@H](C)O` [PB1(318–326)] (H-FLAMITYMT-OH), the Kd is 557 nM in experiment [1] (setting [3]) and 253 nM on HLA-A*02:01 (setting [4]).

For the molecule `CSCC[C@H](NC(=O)CNC(=O)[C@H](CCSC)NC(=O)[C@H](CCSC)NC(=O)[C@@H](N)CCSC)C(=O)N[C@@H](Cc1ccccc1)C(=O)N[C@@H](CC(N)=O)C(=O)N[C@@H](CCSC)C(=O)N[C@@H](CC(C)C)C(=O)N[C@@H](CO)C(=O)N[C@H](C(=O)O)[C@@H](C)O` [PB1(407–417)] (H-MMMGMFNMLST-OH), the Kd in experiment [1] (setting [3]) came out at 315 nM; on HLA-A*02:01 (setting [4]), 36 nM.

For the molecule `CSCC[C@H](NC(=O)CNC(=O)[C@H](CCSC)NC(=O)[C@@H](N)CCSC)C(=O)N[C@@H](Cc1ccccc1)C(=O)N[C@@H](CC(N)=O)C(=O)N[C@@H](CCSC)C(=O)N[C@@H](CC(C)C)C(=O)N[C@@H](CO)C(=O)N[C@H](C(=O)N[C@H](C(=O)O)C(C)C)[C@@H](C)O` [PB1(408–418)] (H-MMGMFNMLSTV-OH), the Kd was determined as 172 nM in experiment [1] (setting [3]) and 51 nM on HLA-A*02:01 (setting [4]).

Turning to `CSCC[C@H](NC(=O)CN)C(=O)N[C@@H](Cc1ccccc1)C(=O)N[C@@H](CC(N)=O)C(=O)N[C@@H](CCSC)C(=O)N[C@@H](CC(C)C)C(=O)N[C@@H](CO)C(=O)N[C@H](C(=O)N[C@H](C(=O)O)C(C)C)[C@@H](C)O` [PB1(410–418)] (H-GMFNMLSTV-OH), the Kd was determined as 34 nM in experiment [1] (setting [3]) and 23 nM on HLA-A*02:01 (setting [4]).

Regarding `CSCC[C@H](NC(=O)CN)C(=O)N[C@@H](Cc1ccccc1)C(=O)N[C@@H](CC(N)=O)C(=O)N[C@@H](CCSC)C(=O)N[C@@H](CC(C)C)C(=O)N[C@@H](CO)C(=O)N[C@H](C(=O)N[C@H](C(=O)N[C@@H](CC(C)C)C(=O)O)C(C)C)[C@@H](C)O` [PB1(410–419)] (H-GMFNMLSTVL-OH), the Kd came out at 29 nM in experiment [1] (setting [3]) and 384 nM on HLA-A*02:01 (setting [4]).

For `CSCC[C@H](NC(=O)[C@@H](N)CC(N)=O)C(=O)N[C@@H](CC(C)C)C(=O)N[C@@H](CO)C(=O)N[C@H](C(=O)N[C@H](C(=O)N[C@@H](CC(C)C)C(=O)NCC(=O)N[C@H](C(=O)O)C(C)C)C(C)C)[C@@H](C)O` [PB1(413–421)] (H-NMLSTVLGV-OH), the Kd in experiment [1] (setting [3]) is greater than 5000 nM; on HLA-A*02:01 (setting [4]), 16 nM.

As to `CC[C@H](C)[C@H](NC(=O)[C@@H]1CCCN1C(=O)[C@H](Cc1ccc(O)cc1)NC(=O)[C@H](CCCCN)NC(=O)[C@H](CCSC)NC(=O)[C@H](C)NC(=O)[C@H](CCSC)NC(=O)[C@H](CCSC)NC(=O)[C@@H](N)Cc1c[nH]c2ccccc12)C(=O)O` [PB2(49–57)] (H-WMMAMKYPI-OH), the Kd is greater than 5000 nM in experiment [1] (setting [3]) and 36 nM on HLA-A*02:01 (setting [4]).

Consider `CC[C@H](C)[C@H](NC(=O)[C@@H]1CCCN1C(=O)[C@H](Cc1ccc(O)cc1)NC(=O)[C@H](CCCCN)NC(=O)[C@H](CCSC)NC(=O)[C@H](C)NC(=O)[C@H](CCSC)NC(=O)[C@H](CCSC)NC(=O)[C@@H](N)Cc1c[nH]c2ccccc12)C(=O)N[C@H](C(=O)N[C@@H](C)C(=O)O)[C@@H](C)O` [PB2(49–59)] (H-WMMAMKYPITA-OH), for which the Kd in experiment [1] (setting [3]) is 528 nM; on HLA-A*02:01 (setting [4]) it was 75 nM.

Take `CC(C)C[C@H](NC(=O)[C@H](CCCCN)NC(=O)[C@H](CC(C)C)NC(=O)[C@@H](NC(=O)[C@H](CC(N)=O)NC(=O)[C@H](CCC(N)=O)NC(=O)[C@H](CCCCN)NC(=O)[C@@H](NC(=O)[C@H](Cc1ccc(O)cc1)NC(=O)[C@H](CCCCN)NC(=O)[C@@H](N)Cc1ccc(O)cc1)C(C)C)[C@@H](C)O)C(=O)N[C@@H](C)C(=O)N[C@H](C(=O)N[C@@H](Cc1c[nH]cn1)C(=O)N[C@@H](Cc1c[nH]cn1)C(=O)N[C@@H](Cc1c[nH]cn1)C(=O)N[C@@H](Cc1c[nH]cn1)C(=O)N[C@@H](Cc1c[nH]cn1)C(=O)N[C@@H](Cc1c[nH]cn1)C(=O)O)[C@@H](C)O` [Reference peptide, reference compound] (H-YKYVKQNTLKLATHHHHHH-OH): in experiment [1], the Kd stood at 8 nM.

Regarding LLQNSQVYS [NP(306–315)], the Kd in experiment [1] (pH 7, read-out: HLA-DRB1*01:01 Measured) is greater than 5000 nM. Moreover, the “Response: type of immune response, CD4 (second symbol)” value in experiment [2] is on record as “-”.
